What was measured:
mouse [1] = details: Carcinogenicity, b6c3f1, Oral, Feed, dose end: 24 month, group: systemic
rat [2] = details: Subchronic oral toxicity in rodents, wistar, Feed, dose end: 90 day, group: systemic
rat [3] = details: Prenatal developmental toxicity study, wistar, Oral, Gavage/Intubation, dose end: 19 GD
rabbit = details: Prenatal developmental toxicity study, himalayan, Oral, Gavage/Intubation, dose end: 28 GD
mouse [4] = details: Subchronic oral toxicity in rodents, b6c3f1, Feed, dose end: 90 day, group: systemic
rat [5] = details: Multigenerational reproductive toxicity study, sprague dawley, Oral, Feed, dose end: 2 generation
rat [6] = details: Combined chronic toxicity/carcinogenicity; wistar; Oral; Feed; dose end: 2 year; group: systemic; systemic / pathology microscopic / liver / cytoplasmic alteration + systemic / pathology microscopic / liver / hypertrophy + systemic / …
dog [7] = details: Chronic toxicity, beagle, Oral, Feed, dose end: 52 week, group: systemic
dog [8] = details: Subchronic oral toxicity in nonrodent, beagle, Feed, dose end: 106 day, group: systemic
[9] = systemic / pathology microscopic / liver / degeneration + systemic / pathology microscopic / liver / fatty change + systemic / pathology …
[10] = systemic / pathology microscopic / lymph node / hemorrhage
[11] = systemic / clinical chemistry / triiodothyronine (t3) / triiodothyronine (t3), free
[12] = group: developmental, developmental / developmental malformation / bone / enlarged fontanel + developmental / developmental malformation / bone / incomplete …
[13] = group: maternal, reproductive / reproductive performance / resorptions / resorptions + systemic / in life observation / body weight / body weight + systemic…
[14] = group: developmental, systemic / in life observation / body weight / fetal weight
[15] = group: developmental, systemic / in life observation / body weight / fetal weight + developmental / developmental malformation / bone / full supernumerary + …
[16] = group: maternal, systemic / in life observation / body weight / body weight gain + systemic / in life observation / clinical signs / defecation + systemic / …
[17] = systemic / pathology microscopic / adrenal gland / fatty change + systemic / pathology microscopic / adrenal gland / hypertrophy
[18] = systemic / pathology microscopic / liver / hypertrophy
[19] = group: offspring, systemic / in life observation / body weight / offspring (pup) weight
[20] = group: parental, systemic / organ weight / liver / absolute + systemic / organ weight / liver / relative to body weight + systemic / organ weight / thyroid …
[21] = group: reproductive, reproductive / reproductive performance / dystocia / dystocia
[22] = systemic / organ weight / prostate / nos
[23] = systemic / organ weight / spleen / nos
[24] = systemic / clinical chemistry / [other] / [other] + systemic / clinical chemistry / epoxide hydrolase / epoxide hydrolase + systemic / …
[25] = systemic / clinical chemistry / epoxide hydrolase / epoxide hydrolase + systemic / pathology microscopic / prostate / secretory fluid

N#CN=C1SCCN1Cc1ccc(Cl)nc1 [Thiacloprid] was tested, and the LOAEL (mouse [1]; [9]) was 234 mg/kg/day, the NOAEL (mouse [1]; [9]) was 5.7 mg/kg/day and the LEL (mouse [1]; [10]) was 5.7 mg/kg/day. The NEL (mouse [1]; [10]) was < 5.7 mg/kg/day, the LEL (rat [2]; [11]) was 1.9 mg/kg/day and the NEL (rat [2]; [11]) was < 1.9 mg/kg/day. For the same compound, the LOAEL (rat [2]; systemic / in life observation / body weight / body weight) was 28.6 mg/kg/day, the NOAEL (rat [2]; systemic / in life observation / body weight / body weight + systemic / clinical chemistry / cholesterol / cholesterol + systemic / clinical…) was 7.3 mg/kg/day and the LEL (rat [3]; [12]) was 50 mg/kg/day. For the same compound, the LOAEL (rat [3]; [12]) was 50 mg/kg/day, the NEL (rat [3]; [12]) was 10 mg/kg/day and the NOAEL (rat [3]; [12]) was 10 mg/kg/day. The LEL (rat [3]; [13]) was 50 mg/kg/day, the LOAEL (rat [3]; [13]) was 50 mg/kg/day and the NEL (rat [3]; [13]) was 10 mg/kg/day. For the same compound, the NOAEL (rat [3]; [13]) was 10 mg/kg/day, the LEL (rabbit; [14]) was 10 mg/kg/day and the LOAEL (rabbit; [14]) was 10 mg/kg/day. The NEL (rabbit; [15]) was 2 mg/kg/day, the NOAEL (rabbit; [15]) was 2 mg/kg/day and the LEL (rabbit; [16]) was 10 mg/kg/day. For the same compound, the LOAEL (rabbit; [16]) was 10 mg/kg/day, the NEL (rabbit; [16]) was 2 mg/kg/day and the NOAEL (rabbit; [16]) was 2 mg/kg/day. For the same compound, the LOAEL (mouse [4]; [17]) was 27.2 mg/kg/day, the NOAEL (mouse [4]; [17]) was < 27.2 mg/kg/day and the LEL (mouse [4]; [18]) was 19.9 mg/kg/day. For the same compound, the NEL (mouse [4]; [18]) was < 19.9 mg/kg/day, the LEL (rat [5]; [19]) was 21 mg/kg/day and the LOAEL (rat [5]; [19]) was 21 mg/kg/day. The NEL (rat [5]; [19]) was 3.5 mg/kg/day, the NOAEL (rat [5]; [19]) was 3.5 mg/kg/day and the LOAEL (rat [5]; [20]) was 21 mg/kg/day. It also gave an NEL (rat [5]; [20]) of 3.5 mg/kg/day, an NOAEL (rat [5]; [20]) of 3.5 mg/kg/day and an LEL (rat [5]; group: parental, systemic / organ weight / liver / absolute + systemic / organ weight / liver / relative to body weight + systemic / pathology microscopic / …) of 21 mg/kg/day. The LEL (rat [5]; [21]) was 26 mg/kg/day, the LOAEL (rat [5]; [21]) was 26 mg/kg/day and the NEL (rat [5]; [21]) was 4.2 mg/kg/day. It also gave an NOAEL (rat [5]; [21]) of 4.2 mg/kg/day, an LEL (rat [6]) of 2.5 mg/kg/day and an LOAEL (rat [6]) of 2.5 mg/kg/day. For the same compound, the NEL (rat [6]) was 1.2 mg/kg/day, the NOAEL (rat [6]) was 1.2 mg/kg/day and the LOAEL (dog [7]; [22]) was > 32.2 mg/kg/day. For the same compound, the NOAEL (dog [7]; [22]) was ≥ 32.2 mg/kg/day, the LEL (dog [7]; [23]) was 1.39 mg/kg/day and the NEL (dog [7]; [23]) was < 1.39 mg/kg/day. For the same compound, the LOAEL (dog [8]; [24]) was 34.7 mg/kg/day, the NOAEL (dog [8]; [24]) was 8.9 mg/kg/day and the LEL (dog [8]; [25]) was 8.5 mg/kg/day. The NEL (dog [8]; [25]) was < 8.5 mg/kg/day.

— EPA's ToxRefDB 2
